# In article PMC10425210 (The Journal of Clinical Investigation, 2023):
# “And” between values parts separate entries of the source, which are not always exact repeats. Identical values can stand only once. “Also recorded” adds a separate entry of the source. Like-named read-outs stand apart in the source and are kept apart here.
# Test system: SHIV-SF162P3
# Type: in vivo, rhesus macaques
structure (smiles),measurement,setting,value
"CC(C)(C#Cc1ccc(-c2ccc(Cl)c3c(NS(C)(=O)=O)nn(CC(F)(F)F)c23)c([C@H](Cc2cc(F)cc(F)c2)NC(=O)Cn2nc(C(F)(F)F)c3c2C(F)(F)[C@@H]2C[C@H]32)n1)S(C)(=O)=O [LEN, Lenacapavir]",Plasma SHIV RNA,"animal V426, 75 mg/kg, week 3 post challenge",62 copies per mL
same,Challenge outcome,"animal V430, 50 mg/kg",Not infected
same,Intact SHIV DNA / 10M PBMC,"animal V430, 50 mg/kg, Wk 2 post challenge",1 / 10M PBMC
same,Intact SHIV DNA / 10M PBMC,"animal V430, 50 mg/kg, Wk 10 post challenge",1 / 10M PBMC
same,Plasma SHIV RNA,"animal V430, 50 mg/kg, week 0 post challenge",62 copies per mL
same,Plasma SHIV RNA,"animal V430, 50 mg/kg, week 1 post challenge",62 copies per mL
same,Plasma SHIV RNA,"animal V430, 50 mg/kg, week 2 post challenge",62 copies per mL
same,Plasma SHIV RNA,"animal V430, 50 mg/kg, week 3 post challenge",62 copies per mL
same,Plasma SHIV RNA,"animal V430, 50 mg/kg, week 4 post challenge",62 copies per mL
same,Plasma SHIV RNA,"animal V430, 50 mg/kg, week 5 post challenge",62 copies per mL
same,Plasma SHIV RNA,"animal V430, 50 mg/kg, week 6 post challenge",62 copies per mL
same,Plasma SHIV RNA,"animal V430, 50 mg/kg, week 7 post challenge",62 copies per mL
same,Plasma SHIV RNA,"animal V430, 50 mg/kg, week 8 post challenge",62 copies per mL
same,Plasma SHIV RNA,"animal V430, 50 mg/kg, week 9 post challenge",62 copies per mL
same,Plasma SHIV RNA,"animal V430, 50 mg/kg, week 10 post challenge",62 copies per mL
same,Plasma SHIV RNA,"animal V430, 50 mg/kg, week 11 post challenge",62 copies per mL
same,Plasma SHIV RNA,"animal V430, 50 mg/kg, week 12 post challenge",62 copies per mL
same,Plasma SHIV RNA,"animal V430, 50 mg/kg, week 13 post challenge",62 copies per mL
same,Plasma SHIV RNA,"animal V430, 50 mg/kg, week 14 post challenge",62 copies per mL
same,Plasma SHIV RNA,"animal V430, 50 mg/kg, week 15 post challenge",62 copies per mL
same,Plasma SHIV RNA,"animal V430, 50 mg/kg, week 16 post challenge",62 copies per mL
same,Plasma SHIV RNA,"animal V430, 50 mg/kg, week 17 post challenge",62 copies per mL
same,Plasma SHIV RNA,"animal V430, 50 mg/kg, week 18 post challenge",62 copies per mL
same,Challenge outcome,"animal V435, 75 mg/kg",Infected
same,Intact SHIV DNA / 10M PBMC,"animal V435, 75 mg/kg, Wk 2 post challenge",1890.13 / 10M PBMC
same,Plasma SHIV RNA,"animal V435, 75 mg/kg, week 0 post challenge",62 copies per mL
same,Plasma SHIV RNA,"animal V435, 75 mg/kg, week 1 post challenge",62 copies per mL
same,Plasma SHIV RNA,"animal V435, 75 mg/kg, week 2 post challenge",756278 copies per mL
same,Plasma SHIV RNA,"animal V435, 75 mg/kg, week 6 post challenge",242042 copies per mL
same,Plasma SHIV RNA,"animal V435, 75 mg/kg, week 7 post challenge",286179 copies per mL
same,Plasma SHIV RNA,"animal V435, 75 mg/kg, week 9 post challenge",32896 copies per mL
same,Plasma SHIV RNA,"animal V435, 75 mg/kg, week 10 post challenge",40477 copies per mL
same,Plasma SHIV RNA,"animal V435, 75 mg/kg, week 11 post challenge",31394 copies per mL
same,Plasma SHIV RNA,"animal V435, 75 mg/kg, week 12 post challenge",7502 copies per mL
same,Plasma SHIV RNA,"animal V435, 75 mg/kg, week 13 post challenge",16622 copies per mL
same,Plasma SHIV RNA,"animal V435, 75 mg/kg, week 14 post challenge",6647 copies per mL
same,Plasma SHIV RNA,"animal V435, 75 mg/kg, week 15 post challenge",46117 copies per mL
same,Plasma SHIV RNA,"animal V435, 75 mg/kg, week 16 post challenge",21357 copies per mL
same,Plasma SHIV RNA,"animal V435, 75 mg/kg, week 17 post challenge",55828 copies per mL
same,Plasma SHIV RNA,"animal V435, 75 mg/kg, week 18 post challenge",34073 copies per mL
same,Plasma SHIV RNA,"animal V435, 75 mg/kg, week 19 post challenge",913 copies per mL
same,Plasma SHIV RNA,"animal V435, 75 mg/kg, week 20 post challenge",62 copies per mL
same,Challenge outcome,"animal V470, 50 mg/kg",Not infected
same,Intact SHIV DNA / 10M PBMC,"animal V470, 50 mg/kg, Wk 2 post challenge",1 / 10M PBMC
same,Intact SHIV DNA / 10M PBMC,"animal V470, 50 mg/kg, Wk 10 post challenge",1 / 10M PBMC
same,Plasma SHIV RNA,"animal V470, 50 mg/kg, week 0 post challenge",62 copies per mL
same,Plasma SHIV RNA,"animal V470, 50 mg/kg, week 1 post challenge",62 copies per mL
same,Plasma SHIV RNA,"animal V470, 50 mg/kg, week 2 post challenge",62 copies per mL
same,Plasma SHIV RNA,"animal V470, 50 mg/kg, week 3 post challenge",62 copies per mL
same,Plasma SHIV RNA,"animal V470, 50 mg/kg, week 4 post challenge",62 copies per mL
same,Plasma SHIV RNA,"animal V470, 50 mg/kg, week 5 post challenge",62 copies per mL
same,Plasma SHIV RNA,"animal V470, 50 mg/kg, week 6 post challenge",62 copies per mL
same,Plasma SHIV RNA,"animal V470, 50 mg/kg, week 7 post challenge",62 copies per mL
same,Plasma SHIV RNA,"animal V470, 50 mg/kg, week 8 post challenge",62 copies per mL
same,Plasma SHIV RNA,"animal V470, 50 mg/kg, week 9 post challenge",62 copies per mL
same,Plasma SHIV RNA,"animal V470, 50 mg/kg, week 10 post challenge",62 copies per mL
same,Plasma SHIV RNA,"animal V470, 50 mg/kg, week 11 post challenge",62 copies per mL
same,Plasma SHIV RNA,"animal V470, 50 mg/kg, week 12 post challenge",62 copies per mL
same,Plasma SHIV RNA,"animal V470, 50 mg/kg, week 13 post challenge",62 copies per mL
same,Plasma SHIV RNA,"animal V470, 50 mg/kg, week 14 post challenge",62 copies per mL
same,Plasma SHIV RNA,"animal V470, 50 mg/kg, week 15 post challenge",62 copies per mL
same,Plasma SHIV RNA,"animal V470, 50 mg/kg, week 16 post challenge",62 copies per mL
same,Plasma SHIV RNA,"animal V470, 50 mg/kg, week 17 post challenge",62 copies per mL
same,Plasma SHIV RNA,"animal V470, 50 mg/kg, week 18 post challenge",62 copies per mL
same,reduction of the rate of infection per exposure,compared with the untreated group,more than 2 fold
same,intact proviral DNA assay (IPDA) signal,"eight SHIV-negative animals, weeks 2 and 10",No signal was detected
same,Peak Plasma SHIV RNA,individual LEN-dosed infected animals,299412 copies/mL and 1140343 copies/mL and 35193943 copies/mL
same,animals viremic after challenge,"of 11 LEN-dosed animals, 100 TCID50, 2 weeks after challenge",3 animals
same,anti-capsid (p27) antibody ELISA,"other 8 animals, through week 10 after challenge",no antibodies were detectable
same,LEN-dosed animals with confirmed uninfected status,"plasma PCR, serology, IPDA",8 of 11
same,Challenge outcome,"rhesus monkey, in vivo",Not infected
same,Intact SHIV DNA / 10M PBMC,"rhesus monkey, in vivo",1 / 10M PBMC
same,Plasma SHIV RNA,"rhesus monkey, in vivo",62 copies per mL
same,"resistance emergence, capsid sequence of plasma virus","rhesus monkey, in vivo",no emerging mutations in capsid; also recorded: No resistance was selected
same,"peak viremia, LEN-dosed infected vs untreated animals",same viral inoculum,no significant differences
